Columns and labels:
Assay type in all cases: cell-based, mouse
BMDM cells = assay: MitoTracker/MitoSOX staining and ROS detection (DCFH-DA flow cytometry) in BMDMs; conditions: LPS and Nigericin
Description: Mitochondrial dysfunction and excessive production of reactive oxygen species (ROS) are key upstream signaling events in the activation of the NLRP3 inflammasome. To investigate whether compound F14 affects mitochondrial damage and ROS production, we performed staining experiments using MitoTracker and MitoSOX, followed by imaging and analysis using a confocal microscope. […] To further verify the effect of F14 on ROS levels, we used flow cytometry to measure intracellular ROS levels in BMDM cells stimulated with Nigericin.
BMDMs were seeded at a density of 1.0 × 10^6 cells per well in a 6-well plate, and the cell treatment was performed as described above. DCFH-DA probe was added to each well at a 1:1000 dilution (prepared in serum-free medium), and the cells were incubated at 37 °C in the dark for 20 min. The cells were gently mixed every 5 min to ensure uniform probe penetration. The cells were washed three times with PBS, and ROS levels were measured using flow cytometry (excitation/emission wavelengths: 488/525 nm).

AIM2 inflammasome = AIM2 inflammasome activation induced by poly (dA:dT) in BMDMs; conditions: F14 10 μM, LPS-primed BMDMs
Description: (§1) The NLRP3 inflammasome can be activated by various stimuli, such as microbial toxins and urate crystals. This process plays a central role in the pathogenesis of many inflammatory diseases. To assess whether F14 exerts a broad-spectrum inhibitory effect on NLRP3 inflammasome activation, we used three different activators—ATP, MSU, and Nigericin to stimulate BMDMs. […] Among the inflammasome family, NLRC4 and AIM2 are also protein complexes involved in the innate immune response, playing key roles in inflammatory regulation during infection and tissue damage. Poly (dA:dT) was used to induce AIM2 activation, while S.typhi was employed to stimulate NLRC4 activation. […].
(§2) The LPS concentration was 200 ng/mL to pretreat BMDM cells for 3 h, then F14 (10 μM) was added to treat the cells for 30 min, and then each inducer—Nigericin (10 μM, 0.5 h), ATP (2.5 mM, 0.5 h), MSU (150 μg/mL, 4 h), S.typhi (4 h), and poly-(dA:dT) (0.5 μg/mL, 4 h)—were added for stimulation. (A) F14 has a broad-spectrum inhibitory effect on NLRP3 inflammasome activation. (B) F14 has a specific inhibitory effect on NLRP3 inflammasome activation. Data are presented as the mean ± SEM (n = 3). *** p < 0.001 vs. the model group. NS, not significant.

NLRP3 inflammasome = NLRP3 inflammasome activation by ATP, MSU and Nigericin in BMDMs (ELISA of IL-1β); conditions: F14 10 μM; LPS-primed BMDMs stimulated with ATP, MSU or Nigericin
Description: as §1, §2

SMILES: Cc1ccc(C(=O)/C=C/c2cccc(O)c2)c(C)c1 [Compound F14, (E)-1-(2,4-dimethylphenyl)-3-(3-hydroxyphenyl)propyl-2-en-1-one]
- mitochondrial membrane potential and fluorescence intensity of mitochondrial superoxide anions (BMDM cells; MitoTracker, MitoSOX): no significant improvement
- total ROS levels (BMDM cells; flow cytometry): no significant change
- activation of AIM2 inflammasome (AIM2 inflammasome): no effect
- protein expression levels of mature IL-1β (ELISA) (NLRP3 inflammasome): significantly reduced

Source: article PMC12388496, “Discovery of (E)-1,3-Diphenyl-2-Propen-1-One Derivatives as Potent and Orally Active NLRP3 Inflammasome Inhibitors for Colitis” (Molecules, 2025)
